Assay results reported in ChEMBL document CHEMBL1151532, “Oxa-prostanoid analogs. Identification of an orally effective, dual thromboxane receptor antagonist /thromboxane synthase inhibitor” (Bioorg Med Chem Lett, 1994).
Several values for one entry are separate records, joined by “and”; a condition that tells them apart may be missing. Equal values may be shown once.

Columns and labels:
Cavia porcellus = assay: Ex vivo inhibition of […] induced guinea pig platelet aggregation after 1 hr post oral administration at a dose of 10 mg/kg; Aggregation ratio = EC50 for drug/EC50 for control; assay type: functional
Thromboxane-A synthase = target: T1, Thromboxane-A synthase (Homo sapiens, UniProt P24557); assay: In vitro inhibition against thromboxane synthase
T1 sequence (P24557 whole entry): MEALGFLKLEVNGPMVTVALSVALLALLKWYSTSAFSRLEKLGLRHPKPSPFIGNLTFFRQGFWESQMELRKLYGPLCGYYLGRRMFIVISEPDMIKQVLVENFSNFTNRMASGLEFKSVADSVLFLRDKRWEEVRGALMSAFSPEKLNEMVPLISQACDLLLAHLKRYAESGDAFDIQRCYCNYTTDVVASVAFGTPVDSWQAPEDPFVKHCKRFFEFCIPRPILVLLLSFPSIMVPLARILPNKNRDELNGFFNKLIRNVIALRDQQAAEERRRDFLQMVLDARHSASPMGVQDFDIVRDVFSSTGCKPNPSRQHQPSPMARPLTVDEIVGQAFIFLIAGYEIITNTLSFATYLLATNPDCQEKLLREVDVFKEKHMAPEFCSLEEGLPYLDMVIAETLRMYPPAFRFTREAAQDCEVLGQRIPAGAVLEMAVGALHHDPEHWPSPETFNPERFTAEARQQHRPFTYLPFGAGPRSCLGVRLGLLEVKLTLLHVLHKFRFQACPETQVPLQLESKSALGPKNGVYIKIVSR

[1] = In vitro thromboxane receptor antagonist against U-46619 induced aggregation of washed human platelets

SMILES	IC50 (Thromboxane-A synthase)	further results
O=C(O)CCCCO/N=C(/c1cccnc1)c1cccc(C(F)(F)F)c1 [RIDOGREL]		Aggregation ratio (Cavia porcellus): 4.4
O=C(O)CC/C=C\CC[C@H]1[C@@H](OCc2ccc(-c3ccccc3)cc2)CO[C@@H]1c1cccnc1 (stereo in doubt; 5)	17 nM	
O=C(O)CCC(CCCCNS(=O)(=O)c1ccc(Cl)cc1)CCCc1cccnc1 (stereo not given)		IC50 [1]: 18 nM; Aggregation ratio (Cavia porcellus): 24.5
O=C(O)CC/C=C\CC[C@H]1[C@@H](OCc2ccc(-c3ccccc3)cc2)CO[C@@H]1c1cccnc1 (stereo in doubt; (-))	120 nM	
O=C(O)CC/C=C\CC[C@H]1[C@@H](OCc2ccc(-c3ccccc3)cc2)CO[C@@H]1c1cccnc1 (stereo in doubt; (+))	4.3 nM	Aggregation ratio (Cavia porcellus; 10 mg/kg): >100 and 65.6
O=C(O)CC/C=C\CC[C@@H]1[C@@H](c2cccnc2)OC[C@H]1OCc1ccc(-c2ccccc2)cc1	22 nM	

Second part, led by results:

IC50 (Thromboxane-A synthase)	SMILES	further results
65 nM	O=C(O)CC/C=C\CC[C@H]1[C@H](OCc2ccc(-c3ccccc3)cc2)CO[C@H]1c1cccnc1	
32 nM	O=C(O)CC/C=C\CC[C@H]1[C@@H](OCc2ccc(-c3ccccc3)cc2)CO[C@H]1c1cccnc1	
